Source: patent US11999702B1, “4,5-bis(4-chlorophenyl)-1-hexyl-2-(3,4-dimethoxyphenyl)-1H-imidazole as an antimicrobial compound” (KING FAISAL UNIVERSITY, priority 2023, dated 2024)

Columns and labels:
Type in all cases: cell-based
Conditions in all cases: after 10, 20, 40 and 60 minutes at all dilutions 1:100, 1:200, 1:400, 1:800
Candida albicans = assay: Antimicrobial testing by agar dilution, Candida albicans
Method: (§1) The antimicrobial properties of the 4,5-bis(4-chlorophenyl)-1-hexyl-2-(3,4-dimethoxyphenyl)-1H-imidazole (5) were studied by the method of agar dilution. Test solutions of each compound were prepared in concentration of 1% using dimethylformamide as a solvent then they are diluted in physiological solution to obtain the final experimental dilutions 1:100, 1:200, 1:400, 1:800. The effect of these substances were compared with furacillin in a controllable study. The testing microbes used were gram positive bacteria Staphylococcus aureus, gram negative bacteria Escherichia coli, Pseudomonas aeruginosa and Candida albicans fungi were taken. The experiments used for this survey were meat-pentonlu agar (EPA) for cultivation of bacteria and Saburo environment for fungi. Each experiment used 1 ml of test solution on each plate 500 min. Add 2 drops of emulsified with microbes feel. All experimental samples were taken from the agar after 10, 20, 40, 60 minutes in the environment on the basis of Patrk planted. Bacteria were cultivated at a temperature of 37° C. for 1 day and the mushroom was kept in a thermostat for […] at a temperature of 28° C. in the. Then results were checked.

Pseudomonas aeruginosa = assay: Antimicrobial testing by agar dilution, Pseudomonas aeruginosa
Method: as §1

Staphylococcus aureus = assay: Antimicrobial testing by agar dilution, Staphylococcus aureus
Method: as §1

Escherichia coli = assay: Antimicrobial testing by agar dilution, Escherichia coli
Method: as §1

Measured: inhibition activity

CCCCCCn1c(-c2ccc(OC)c(OC)c2)nc(-c2ccc(Cl)cc2)c1-c1ccc(Cl)cc1 [4,5-bis(4-chlorophenyl)-1-hexyl-2-(3,4-dimethoxyphenyl)-1H-imidazole]
highest inhibition activity: all assays above
